# Measured values as given in patent US10251395B2, “Substituted furano-/thienocycloalkylamino-2-pyrimidine derivatives and use thereof for controlling undesired plant growth” (Bayer CropScience Aktiengesellschaft, priority 2015, dated 2019).
# Experiments:
# Abutilon theophrasti [1] = assay: Pre-emergence herbicidal effect; format: in vivo; conditions: scored visually after 3 weeks
# Method in brief: (§1)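 After seeds are covered with sandy loam soil, the formulated compound is sprayed onto the soil surface as an aqueous suspension or emulsion containing 0.2% wetting agent. Three weeks later in the greenhouse, damage is rated by eye from 0% (like controls) to 100% (dead).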
# Alopecurus myosuroides [2] = assay: Pre-emergence herbicidal effect; format: in vivo; conditions: scored visually after 3 weeks
# Method in brief: as §1
# Amaranthus retroflexus [3] = assay: Pre-emergence herbicidal effect; format: in vivo; conditions: scored visually after 3 weeks
# Method in brief: as §1
# Avena fatua = assay: Pre-emergence herbicidal effect; format: in vivo; conditions: scored visually after 3 weeks
# Method in brief: as §1
# Cyperus esculentus = assay: Pre-emergence herbicidal effect; format: in vivo; conditions: scored visually after 3 weeks
# Method in brief: as §1
# Echinochloa crus-galli [4] = assay: Pre-emergence herbicidal effect; format: in vivo; conditions: scored visually after 3 weeks
# Method in brief: as §1
# Ipomoea purpurea [5] = assay: Pre-emergence herbicidal effect; format: in vivo; conditions: scored visually after 3 weeks
# Method in brief: as §1
# Matricaria inodora [6] = assay: Pre-emergence herbicidal effect; format: in vivo; conditions: scored visually after 3 weeks
# Method in brief: as §1
# Polygonum convolvulus [7] = assay: Pre-emergence herbicidal effect; format: in vivo; conditions: scored visually after 3 weeks
# Method in brief: as §1
# Setaria viridis [8] = assay: Pre-emergence herbicidal effect; format: in vivo; conditions: scored visually after 3 weeks
# Method in brief: as §1
# Viola tricolor [9] = assay: Pre-emergence herbicidal effect; format: in vivo; conditions: scored visually after 3 weeks
# Method in brief: as §1
# Abutilon theophrasti [10] = assay: Post-emergence herbicidal effect; format: in vivo; conditions: assessed visually after about 3 weeks vs untreated controls
# Method in brief: (§2)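 Action, expressed in percent from 0 (like controls) to 100 (plants died), is read by eye about 3 weeks after foliar application. Applications use formulated product in water at 600–800 L/ha on one-leaf-stage plants sown in sandy loam.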
# Alopecurus myosuroides [11] = assay: Post-emergence herbicidal effect; format: in vivo; conditions: 320 g/ha, assessed visually after about 3 weeks vs untreated controls
# Method in brief: as §2
# Amaranthus retroflexus [12] = assay: Post-emergence herbicidal effect; format: in vivo; conditions: assessed visually after about 3 weeks vs untreated controls
# Method in brief: as §2
# Echinochloa crus-galli [13] = assay: Post-emergence herbicidal effect; format: in vivo; conditions: 320 g/ha, assessed visually after about 3 weeks vs untreated controls
# Method in brief: as §2
# Ipomoea purpurea [14] = assay: Post-emergence herbicidal effect; format: in vivo; conditions: assessed visually after about 3 weeks vs untreated controls
# Method in brief: as §2
# Matricaria inodora [15] = assay: Post-emergence herbicidal effect; format: in vivo; conditions: assessed visually after about 3 weeks vs untreated controls
# Method in brief: as §2
# Polygonum convolvulus [16] = assay: Post-emergence herbicidal effect; format: in vivo; conditions: 320 g/ha, assessed visually after about 3 weeks vs untreated controls
# Method in brief: as §2
# Setaria viridis [17] = assay: Post-emergence herbicidal effect; format: in vivo; conditions: assessed visually after about 3 weeks vs untreated controls
# Method in brief: as §2
# Stellaria media [18] = assay: Post-emergence herbicidal effect; format: in vivo; conditions: assessed visually after about 3 weeks vs untreated controls
# Method in brief: as §2
# Viola tricolor [19] = assay: Post-emergence herbicidal effect; format: in vivo; conditions: assessed visually after about 3 weeks vs untreated controls
# Method in brief: as §2
# Lolium multiflorum = assay: Pre-emergence herbicidal effect; format: in vivo; conditions: Dosage 320 g/ha, scored visually after 3 weeks
# Method in brief: as §1
# Stellaria media [20] = assay: Pre-emergence herbicidal effect; format: in vivo; conditions: scored visually after 3 weeks
# Method in brief: as §1
# Veronica persica [21] = assay: Pre-emergence herbicidal effect; format: in vivo; conditions: scored visually after 3 weeks
# Method in brief: as §1
# Veronica persica [22] = assay: Post-emergence herbicidal effect; format: in vivo; conditions: assessed visually after about 3 weeks vs untreated controls
# Method in brief: as §2
# logP (HCOOH) = format: physicochemical; conditions: HCOOH
# From the text: Table 2 (physicochemical characterization of selected synthesis examples)
SMILES,ABUTH pre-emergence efficacy (herbicidal activity) (Abutilon theophrasti [1]; Dosage 320 g/ha) [%],ALOMY pre-emergence efficacy (herbicidal activity) (Alopecurus myosuroides [2]; Dosage 320 g/ha) [%],AMARE pre-emergence efficacy (herbicidal activity) (Amaranthus retroflexus [3]; Dosage 80 g/ha) [%],AMARE pre-emergence efficacy (herbicidal activity) (Amaranthus retroflexus [3]; Dosage 320 g/ha) [%],AVEFA pre-emergence efficacy (herbicidal activity) (Avena fatua; Dosage 320 g/ha) [%],CYPES pre-emergence efficacy (herbicidal activity) (Cyperus esculentus; Dosage 320 g/ha) [%],ECHCG pre-emergence efficacy (herbicidal activity) (Echinochloa crus-galli [4]; Dosage 80 g/ha) [%],ECHCG pre-emergence efficacy (herbicidal activity) (Echinochloa crus-galli [4]; Dosage 320 g/ha) [%],PHBPU pre-emergence efficacy (herbicidal activity) (Ipomoea purpurea [5]; Dosage 320 g/ha) [%],MATIN pre-emergence efficacy (herbicidal activity) (Matricaria inodora [6]; Dosage 80 g/ha) [%],MATIN pre-emergence efficacy (herbicidal activity) (Matricaria inodora [6]; Dosage 320 g/ha) [%],POLCO pre-emergence efficacy (herbicidal activity) (Polygonum convolvulus [7]; Dosage 80 g/ha) [%],POLCO pre-emergence efficacy (herbicidal activity) (Polygonum convolvulus [7]; Dosage 320 g/ha) [%],SETVI pre-emergence efficacy (herbicidal activity) (Setaria viridis [8]; Dosage 80 g/ha) [%],SETVI pre-emergence efficacy (herbicidal activity) (Setaria viridis [8]; Dosage 320 g/ha) [%],VIOTR pre-emergence efficacy (herbicidal activity) (Viola tricolor [9]; Dosage 80 g/ha) [%],VIOTR pre-emergence efficacy (herbicidal activity) (Viola tricolor [9]; Dosage 320 g/ha) [%],post-emergence efficacy ABUTH (Abutilon theophrasti [10]; 80 g/ha) [%],post-emergence efficacy ABUTH (Abutilon theophrasti [10]; 320 g/ha) [%],post-emergence efficacy AMARE (Amaranthus retroflexus [12]; 80 g/ha) [%],other results
Cc1cc2c(s1)CCCC2Nc1nc(N)c(Br)c(C(F)F)n1 (racemic) [compound 284],80,80,100,100,70,100,80,100,50,100,100,90,100,100,100,100,100,90,90,80,ABUTH pre-emergence efficacy (herbicidal activity) (Abutilon theophrasti [1]; Dosage 80 g/ha): 20%; ALOMY pre-emergence efficacy (herbicidal activity) (Alopecurus myosuroides [2]; Dosage 80 g/ha): 70%; AVEFA pre-emergence efficacy (herbicidal activity) (Avena fatua; Dosage 80 g/ha): 50%; CYPES pre-emergence efficacy (herbicidal activity) (Cyperus esculentus; Dosage 80 g/ha): 90%; PHBPU pre-emergence efficacy (herbicidal activity) (Ipomoea purpurea [5]; Dosage 80 g/ha): 50%; post-emergence efficacy ALOMY (Alopecurus myosuroides [11]): 100%; post-emergence efficacy AMARE (Amaranthus retroflexus [12]; 320 g/ha): 80%; post-emergence efficacy ECHCG (Echinochloa crus-galli [13]): 80%; post-emergence efficacy PHBPU (Ipomoea purpurea [14]; 80 g/ha): 90%; post-emergence efficacy PHBPU (Ipomoea purpurea [14]; 320 g/ha): 100%; post-emergence efficacy MATIN (Matricaria inodora [15]; 320 g/ha): 80%; post-emergence efficacy POLCO (Polygonum convolvulus [16]): 100%; post-emergence efficacy SETVI (Setaria viridis [17]; 80 g/ha): 90%; post-emergence efficacy SETVI (Setaria viridis [17]; 320 g/ha): 100%; post-emergence efficacy STEME (Stellaria media [18]; 80 g/ha): 100%; post-emergence efficacy STEME (Stellaria media [18]; 320 g/ha): 100%; post-emergence efficacy VIOTR (Viola tricolor [19]; 80 g/ha): 60%; post-emergence efficacy VIOTR (Viola tricolor [19]; 320 g/ha): 90%
CS(=O)(=O)c1cnc(N[C@@H]2CCCc3sccc32)nc1N [compound 24],100,100,100,100,90,60,100,100,100,100,100,100,100,90,100,100,100,100,100,90,"LOLMU pre-emergence efficacy (herbicidal activity) (Lolium multiflorum): 100%; STEME pre-emergence efficacy (herbicidal activity) (Stellaria media [20]; Dosage 80 g/ha): 100%; STEME pre-emergence efficacy (herbicidal activity) (Stellaria media [20]; Dosage 320 g/ha): 100%; VERPE pre-emergence efficacy (herbicidal activity) (Veronica persica [21]; Dosage 80 g/ha): 100%; VERPE pre-emergence efficacy (herbicidal activity) (Veronica persica [21]; Dosage 320 g/ha): 100%; post-emergence efficacy AMARE (Amaranthus retroflexus [12]; 320 g/ha): 90%; post-emergence efficacy PHBPU (Ipomoea purpurea [14]; 80 g/ha): 80%; post-emergence efficacy PHBPU (Ipomoea purpurea [14]; 320 g/ha): 100%; post-emergence efficacy MATIN (Matricaria inodora [15]; 80 g/ha): 80%; post-emergence efficacy MATIN (Matricaria inodora [15]; 320 g/ha): 100%; post-emergence efficacy POLCO (Polygonum convolvulus [16]): 80%; post-emergence efficacy SETVI (Setaria viridis [17]; 320 g/ha): 80%; post-emergence efficacy STEME (Stellaria media [18]; 80 g/ha): 80%; post-emergence efficacy STEME (Stellaria media [18]; 320 g/ha): 100%; post-emergence efficacy VERPE (Veronica persica [22]; 80 g/ha): 90%; post-emergence efficacy VERPE (Veronica persica [22]; 320 g/ha): 100%; post-emergence efficacy VIOTR (Viola tricolor [19]; 80 g/ha): 90%; post-emergence efficacy VIOTR (Viola tricolor [19]; 320 g/ha): 100%; logP (HCOOH) (logP (HCOOH)): solid; logP (HCOOH): 1.82; 1H NMR (CDCl3, 400 MHZ, δ in ppm): 1.85 (m, 3H, 3H"
